For data set [1], the system named is Wheat(var. Merica) (Triticum aestivum). The data set can be described thus: Postemergence herbicidal activity, selectivity to wheat. Type of data set: in vivo. The conditions noted are these: post-emergence, 336 h, Table 3, rate 62.5 (unit inferred), crop injury, read-out: Post-emergent % control TRZAS. As for the experimental part: (§1) Seeds of the desired test plant species were planted in Grace-Sierra MetroMix® 306 planting mixture, which typically has a pH of 6.0 to 6.8 and an organic matter content of about 30 percent, in plastic pots with a surface area of 64 square centimeters. When required to ensure good germination and healthy plants, a fungicide treatment and/or other chemical or physical treatment was applied. The plants were grown for 7-21 days in a greenhouse with an approximate 15 hr photoperiod which was maintained at about 23-29° C. during the day and 22-28° C. during the night. Nutrients and water were added on a regular basis and supplemental lighting was provided with overhead metal halide 1000-Watt lamps as necessary. The plants were employed for testing when they reached the first or second true leaf stage. A weighed amount, determined by the highest rate to be tested, of each test compound was placed in a 20 mL glass vial and was dissolved in 4 mL of a 97:3 v/v (volume/volume) mixture of acetone and dimethyl sulfoxide (DMSO) to obtain concentrated stock solutions. […] The concentrated stock solutions obtained were diluted with an aqueous mixture containing acetone, water, isopropyl alcohol, DMSO, At plus 411 F crop oil concentrate, and Triton X-155 surfactant in a 48.5:39:10:1.5:1.0:0.02 v/v ratio to obtain spray solutions of known concentration. The solutions containing the highest concentration to be tested were prepared by diluting 2 mL aliquots of the stock solution with 13 mL of the mixture and lower concentrations were prepared by serial dilution of the stock solution. Approximately 1.5 mL aliquots of each solution of known concentration were sprayed evenly onto each of the test plant pots using a DeVilbiss atomizer driven by compressed air pressure of […] (140 to 280 kiloPascals) to obtain thorough coverage of each plant. Control plants were sprayed in the same manner with the aqueous mixture. In this test an application rate of 1 ppm results in the application of approximately 1 g/Ha. The treated plants and control plants were placed in a greenhouse as described above and watered by sub-irrigation to prevent wash-off of the test compounds. After 2 weeks the condition of the test plants as compared with that of the untreated plants was determined visually and scored on a scale of 0 to 100 percent where 0 corresponds to no injury and 100 corresponds to complete kill.

Data set [2] has as its system Crabgrass(large) (Digitaria sanguinalis). Briefly: Preemergence herbicidal activity, soil spray. Conditions: Digitaria sanguinalis, pre-emergence, 504 h; Table 5; rate 560 ppm; visual score after 3 weeks; read-out: Pre-emergent % control DIGSA. The class given is in vivo. The gist of the method:
(§2)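 Seeds were sown in a 70:30 loam–sand mix (pH about 8.1, about 1.5% organic matter), and test compound from acetone:DMSO 97:3 stocks, diluted in 99.9:0.1 water:Tween 155, was sprayed evenly on the soil surface before emergence. Pots were held in a greenhouse under an approximate 15 hr photoperiod with top-irrigation.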

Data set [3] concerns Giant Foxtail (Setaria faberi). Briefly: Preemergence herbicidal activity, soil spray. The class given is in vivo. The conditions noted are these: Setaria faberi, pre-emergence, 504 h, Table 5; rate 560 ppm; visual score after 3 weeks; read-out: Pre-emergent % control SETFA. In short, it runs like this: as §2
For data set [4], the system named is Lambsquarter (Chenopodium album). Briefly: Preemergence herbicidal activity, soil spray. The class given is in vivo. The conditions noted are these: Chenopodium album, pre-emergence, 504 h; Table 5; rate 560 ppm; visual score after 3 weeks, 100 complete kill or no germination; read-out: Pre-emergent % control CHEAL. The gist of the method:
as §2

Data set [5] relates to Pigweed (redroot) (Amaranthus retroflexus). Briefly: Preemergence herbicidal activity, soil spray. Conditions: Amaranthus retroflexus, pre-emergence, 504 h; Table 5; rate 560 ppm; visual score after 3 weeks; read-out: Pre-emergent % control AMARE. Type of data set: in vivo. The gist of the method:
as §2

Data set [6] relates to Yellow nutsedge (Cyperus esculentus). The data set can be described thus: Postemergence herbicidal activity, greenhouse spray. The class given is in vivo. Conditions: Cyperus, post-emergence, 336 h, Table 1, visual score after 2 weeks, read-out: Post-emergent % control CYPES; for pest or weed control at 500 ppm: rate 500 ppm. The gist of the method:
(§3)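 Foliar spray at 1st-2nd true leaf; carrier: acetone/water/IPA/DMSO/crop oil concentrate/Triton X-155 (48.5:39:10:1.5:1.0:0.02). Serial dilutions from acetone:DMSO stock. Greenhouse ~15 h light, 23-29° C day. Sub-irrigated post-treatment. Carrier-sprayed controls.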

Data set [7] relates to Lambsquarter (Chenopodium album). Described as above. Conditions: Chenopodium album, post-emergence, 336 h, Table 1, visual score after 2 weeks, read-out: Post-emergent % control CHEAL; for pest or weed control at 500 ppm: rate 500 ppm. Type of data set: in vivo. In short, it runs like this: as §3
In data set [8] the test system is Cocklebur (Xanthium strumarium). The description is as above. The class given is in vivo. Conditions: Xanthium strumarium, post-emergence, 336 h, Table 1, visual score after 2 weeks, read-out: Post-emergent % control XANST; for pest or weed control at 500 ppm: rate 500 ppm, 0 no injury, 100 complete kill. In short, it runs like this:
as §3

Data set [9] concerns Barnyardgrass (Echinochloa crus-galli). The data set is described as above. Type of data set: in vivo. Conditions: Echinochloa crus-galli, post-emergence, 336 h, Table 1, visual score after 2 weeks, read-out: Post-emergent % control ECHCG; for pest or weed control at 500 ppm: rate 500 ppm. In short, it runs like this: as §3
Data set [10] deals with Pigweed (redroot) (Amaranthus retroflexus). The data set is described as above. The class given is in vivo. Conditions: visual score after 2 weeks; for pest or weed control at 62.5 µg/mL: Amaranthus retroflexus, post-emergence, 336 h, Table 3, rate 62.5 (unit inferred), read-out: Post-emergent % control AMARE; for Post-emergent % control AMARE: Table 4, rate 62.5 (unit not given). The gist of the method: as §3

Data set [11] concerns Corn (#14 3377) (Zea mays). Briefly: Postemergence herbicidal activity, selectivity to corn. Type of data set: in vivo. Conditions: post-emergence, 336 h, Table 4, rate 62.5 (unit inferred), crop injury, read-out: Post-emergent % control ZEAMX. On the procedure: as §1

These results are taken from patent US6784137B2, “6-aryl-4-aminopicolinates and their use as herbicides” (Dow AgroSciences LLC, priority 2001, dated 2004).

A word on the melting point: it is the temperature, or range, at which the solid turns liquid.

The structures appear in SMILES notation.

For the compound `COC(=O)c1nc(-c2ccc(C)c(C)c2)cc(N)c1Cl` [Compound 12, methyl 4-amino-3-chloro-6-(3,4-dimethylphenyl)pyridine-2-carboxylate], the melting point was 154 to 156 °C. Besides, the pest or weed control at 62.5 µg/mL in [1] was 0%. For the same compound, the pest or weed control at 560 ppm in [2] came out at 40%. The pest or weed control at 560 ppm in data set [3] was 30%. Moreover, in data set [4], the pest or weed control at 560 ppm was 98%. Further, the pest or weed control at 560 ppm in data set [5] was 100%. Also, in data set [6], the pest or weed control at 500 ppm amounted to 30%. For the same compound, the pest or weed control at 500 ppm in [7] is 95%. In data set [8], the pest or weed control at 500 ppm turned out to be 100%. Further, the pest or weed control at 500 ppm in data set [9] came out at 95%. In data set [10], the pest or weed control at 62.5 µg/mL is 70% and the “Post-emergent % control AMARE” value is recorded as 70%. Moreover, the pest or weed control at 62.5 µg/mL in data set [11] amounted to 10%.
`COC(=O)c1nc(-c2cccc(C)c2)cc(N)c1Cl` [Compound 21, Methyl 4-amino-3-chloro-6-(3-methylphenyl)pyridine-2-carboxylate] gave a melting point of 98 °C. Besides, the pest or weed control at 62.5 µg/mL in data set [1] was 10%. For the same compound, the pest or weed control at 560 ppm in data set [2] was determined as 100%. The pest or weed control at 560 ppm in data set [3] came out at 80%. In [4], the pest or weed control at 560 ppm is 100%. Besides, the pest or weed control at 560 ppm in data set [5] is 100%. For the same compound, the pest or weed control at 250 ppm in data set [6] (rate 250 ppm) was 70%. In data set [7] (rate 250 ppm), the pest or weed control at 250 ppm amounted to 100%. Besides, the pest or weed control at 250 ppm in [8] (rate 250 ppm) was determined as 100%. The pest or weed control at 250 ppm in data set [9] (rate 250 ppm) worked out at 0%. In data set [10], the pest or weed control at 62.5 µg/mL was found to be 70% and the “Post-emergent % control AMARE” value turned out to be 70%. Further, the pest or weed control at 62.5 µg/mL in data set [11] was 0%.
`COC(=O)c1nc(-c2ccc(F)cc2)cc(N)c1Cl` [Compound 43, Methyl 4-amino-3-chloro-6-(4-fluorophenyl)pyridine-2-carboxylate] came in with a melting point of 125 °C. Moreover, the pest or weed control at 62.5 µg/mL in data set [1] is 10%. The pest or weed control at 560 ppm in data set [2] is 100%. Besides, in data set [3], the pest or weed control at 560 ppm was determined as 98%. Besides, in [4], the pest or weed control at 560 ppm was determined as 100%. Further, the pest or weed control at 560 ppm in data set [5] is 100%. The pest or weed control at 500 ppm in data set [6] is 100%. Moreover, in [7], the pest or weed control at 500 ppm stood at 100%. Moreover, the pest or weed control at 500 ppm in [8] came to 100%. For the same compound, in [9], the pest or weed control at 500 ppm stood at 95%. In [10], the pest or weed control at 62.5 µg/mL is 100% and the “Post-emergent % control AMARE” value is 100%. Besides, the pest or weed control at 62.5 µg/mL in data set [11] amounted to 0%.
